# According to patent US8575170B2, “Flurbiprofen analogs and methods of use in treating cancer” (The Regents of the Unversity of Colorado, a body corporate, priority 2010, dated 2013):
# Read-outs that look alike come from different tables or passages of the source.
# Key:
# [1] = test system: 15 different cancer cells lines; experiment: MTT cell viability, 15 different cancer cell lines (FIG. 1); format: cell-based; conditions: 96 h, several cancer cell lines, 4 days, read-out: concentrations causing 50% cell death
# Protocol: (§1) Cell growth and survival following treatment with N—[(S)-2-Fluoro-α-methyl-4-biphenylacetyl]-[L-(4-phenylphenyl)alanine]-N-(2,2,6,6-tetramethyl-4-piperidinyl)amide (GCBH-110=B1031; (S)-Fmba-L-Bip-Atmp) were measured by a rapid colorimetric assay based on the tetrazolium salt MTT (3-(4,5-dimethylthiazol-2-yl)-2,5-diphenyl tetrazolium bromide) (Mosmann, J. Immunol. Methods 65: 55-63, 1983, with minor modifications).
# (§2) Briefly, approximately 1,000-5,000 cancer cells from 15 different cancer cells lines were plated in 100 μL of growth medium in 96-well flat-bottomed microtiter plates. Cells were incubated overnight to allow recovery. Compounds to be tested were added to the cells in triplicate in a range of concentrations and the cells were incubated at 37° C., 5% CO2, with 100% humidity. Control cells were treated in the same way without antagonists. […] Plates were incubated for 4 days, allowing sufficient time for cell replication and compound-induced cell death to occur. On day 5, 25 μL of a 2 mg/mL solution of MTT (Sigma) dissolved in RMPI-1640 was added to each well. The plate was incubated for 4 h at 37° C. The supernatant liquid was removed and the blue formazan complex was dissolved by adding 100 μL of 0.02 N HCl in 75% isopropanol to all wells. Absorbance was immediately determined using a scanning multiwell plate reader.
# L36 = experiment: MTT cell viability, L36; format: cell-based; conditions: Pancreatic cancer cell, 96 h; Pancreatic cancer cells L36; 4 days incubation
# Excerpt: (§3) The ability of the flurbiprofen analog compounds of the invention to inhibit cancer cell growth and survival (viability) in a variety of cancer lines was examined in a standard MTT assay for cell viability, as detailed in Example 2.
# (§4) Similar results were obtained for the effect of the B1031 compound on the 14 pancreatic tumor cells lines shown in Table 3 below, where the dose dependent effect of the compound on survival of the pancreatic cancer cell lines is shown in FIG. 5.
# (§5) The studies reported in Tables 1-3 above were carried out by incubating the cells in the test compound for four days, under standard cell-culture conditions, and measuring cell survival on day 5 (see Example 2).
# as §1
# (§6) Briefly, approximately 1,000-5,000 cancer cells from 15 different cancer cells lines were plated in 100 μL of growth medium in 96-well flat-bottomed microtiter plates. Cells were incubated overnight to allow recovery. […] Absorbance was immediately determined using a scanning multiwell plate reader.
# UMSCC2 = experiment: MTT cell viability, UMSCC2; format: cell-based; conditions: UM-SCC2; Head and neck cancer cell line UMSCC2
# Protocol: as §3
# (§7) A similar study was conducted on 14 […] cancer cell lines, identified in Table 2.
# as §1
# as §2, with “On day 5, 25 μL of a 2 mg/mL solution of MTT (Sigma) dissolved in RMPI-1640 was added to each well. The plate was incubated for 4 h at 37° C. The supernatant liquid was removed and the blue formazan complex was dissolved by adding 100 μL of 0.02 N HCl in 75% isopropanol to all wells.” left out, “reader. […]” for “reader.”
# [2] = Solubility of flurbiprofen analog compounds; format: physicochemical; conditions: medium in which the compound is soluble, Table 5
# L33 = experiment: MTT cell viability, L33; format: cell-based; conditions: Pancreatic cancer cell, 96 h; Pancreatic cancer cells L33; 4 days incubation
# Excerpt: as §3, §4, §5, §1, §6
# H441 = experiment: MTT cell viability, H441; format: cell-based; conditions: Homo sapiens, NCI-H441, 96 h; Adenocarcinoma lung cell line H441; 4 days incubation
# Protocol: as §3, §5, §1
# (§8) Briefly, approximately 1,000-5,000 cancer cells from 15 different cancer cells lines were plated in 100 μL of growth medium in 96-well flat-bottomed microtiter plates. Cells were incubated overnight to allow recovery. Compounds to be tested were added to the cells in triplicate in a range of concentrations and the cells were incubated at 37° C., 5% CO2, with 100% humidity. Control cells were treated in the same way without antagonists. […] Absorbance was immediately determined using a scanning multiwell plate reader.
# [3] = test system: U251 malignant glioma cells; experiment: Inhibition of U251 malignant glioma cells; format: cell-based; conditions: Homo sapiens, U-251; U251 brain cancer cell line, FIG. 6B
# Protocol: FIGS. 6A and 6B show the loss in cell viability in HT-29 colon cancer cells, in response to increasing concentrations of GH 502 (GCBH 118) (FIG. 6A), and the effect of various treatments, including increasing concentration of GH501 (GCBH 110) on U251 malignant glioma cells and BTIC EF12 brain tumor initiating stem cells (FIG. 6B).
# The study shown in FIG. 6A examined the effect of GCBH-118 (GH502) on an HT-29 colon cancer cell, showing an IC50 value of about 1 μM. […] The graph indicates an IC50 value for the B1031 compound against the U251 brain cancer cell line of between 2 and 10 μM.
# L35 = experiment: MTT cell viability, L35; format: cell-based; conditions: Pancreatic cancer cell, 96 h; Pancreatic cancer cells L35; 4 days incubation
# Excerpt: as §3, §4, §5, §1, §6
# H513 = experiment: MTT cell viability, H513; format: cell-based; conditions: 96 h; Mesothelioma lung cell line H513; 4 days incubation
# Protocol: as §3, §5, §1, §8
# H3225 = experiment: MTT cell viability, H3225; format: cell-based; conditions: 96 h; Adenocarcinoma lung cell line H3225; 4 days incubation
# Protocol: as §3, §5, §1, §8
# UMSCC10A = experiment: MTT cell viability, UMSCC10A; format: cell-based; conditions: UMSCC-10A; Head and neck cancer cell line UMSCC10A
# Protocol: as §3, §7, §1
# Briefly, approximately 1,000-5,000 cancer cells from 15 different cancer cells lines were plated in 100 μL of growth medium in 96-well flat-bottomed microtiter plates. Cells were incubated overnight to allow recovery. Compounds to be tested were added to the cells in triplicate in a range of concentrations and the cells were incubated at 37° C., 5% CO2, with 100% humidity. Control cells were treated in the same way without antagonists. […] Plates were incubated for 4 days, allowing sufficient time for cell replication and compound-induced cell death to occur. […] Absorbance was immediately determined using a scanning multiwell plate reader. […]
# WM375 = experiment: MTT cell viability, WM375; format: cell-based; conditions: Melanoma cell line WM375
# Excerpt: as §3
# The results for the several cell lines above were also consistent with IC50 values measured for two melanoma cell lines shown in Table 4 below.
# as §1, §8
# H2122 = experiment: MTT cell viability, H2122 lung carcinoma cell line; format: cell-based; conditions: for IC50: Homo sapiens
# Protocol: as §3
# The IC50 values given in Tables 1-4 were measured using the B1031 ([…]) compound) shown in Section IIB above. To confirm the generality of the results with respect to other fluribprofen analogs prepared in accordance with the invention, IC50 values for the other 11 analog compounds given in Section IIB were similarly determined for the H2122 lung carcinoma cell line.
# as §5, §1, §2
# H460 = experiment: MTT cell viability, H460; format: cell-based; conditions: Homo sapiens, NCI-H460, 96 h; Large Cell lung cell line H460; 4 days incubation
# Protocol: as §3, §5, §1, §8
# H290 = experiment: MTT cell viability, H290; format: cell-based; conditions: NCI-H290, 96 h; Mesothelioma lung cell line H290; 4 days incubation
# Protocol: as §3, §5, §1, §8
# [4] = test system: head and neck cancer cell lines; experiment: MTT cell viability, panel of head and neck cancer cell lines; format: cell-based
# Protocol: as §3, §7, §1, §2
# Similarly, cell growth and survival following treatment with GCBH-110=B1031 was tested using the same MTT assay in 6 head and neck cancer cell lines. GCBH-110=B1031 caused 50% cell death at concentrations between about 0.3 μM and about 2 μM under these conditions (FIG. 3). […] GCBH-110=B1031 caused 50% cell death at concentrations between about 0.2 μM and about 0.8 μM under these conditions.
# A549 = experiment: MTT cell viability, A549; format: cell-based; conditions: Homo sapiens, 96 h; Adenocarcinoma lung cell line A549; 4 days incubation
# Protocol: as §3, §5, §1, §8
# H865 = experiment: MTT cell viability, H865; format: cell-based; conditions: 96 h; SCLC lung cell line H865; 4 days incubation
# Protocol: as §3, §5, §1, §8
# Aspc-1 = experiment: MTT cell viability, Aspc-1; format: cell-based; conditions: Homo sapiens, ASPC1, 96 h; Pancreatic cancer cells Aspc-1; 4 days incubation
# Excerpt: as §3, §4, §5, §1, §6
smiles,measurement,setting,value
"C[C@H](C(=O)N[C@@H](Cc1ccc(-c2ccccc2)cc1)C(=O)NC1CC(C)(C)NC(C)(C)C1)c1ccc(-c2ccccc2)c(F)c1 [GCBH-110, N—[(S)-2-Fluoro-α-methyl-4-biphenylacetyl]-[L-(4-phenylphenyl)alanine]-N-(2,2,6,6-tetramethyl-4-piperidinyl)amide]",IC50,[1],0.1 to 1 µM
same,IC50,L36,0.6 µM
same,IC50,UMSCC2,0.95 µM
same,Solubility,[2],50% DMSO
same,IC50,L33,0.7 µM
same,IC50,H441,1.6 µM
same,IC50,[3],2 to 10 µM
same,IC50,L35,0.8 µM
same,IC50,H513,1.8 µM
same,IC50,H3225,1.1 µM
same,IC50,UMSCC10A,0.2 µM
same,IC50,WM375,0.28 µM
same,activity in inhibiting H2122 cells relative to Aza-dC,"H2122; H2122 lung cancer cell line, versus DNA demethylase inhibitor Aza-dC",many-fold more active
same,activity in inhibiting H2122 cells relative to Syn275 (fold less active),"H2122; H2122 lung cancer cell line, versus HDACi Syn275",about 4 fold
same,IC50,"H2122; NCI-H2122, 96 h, Adenocarcinoma lung cell line H2122, 4 days incubation, read-out: IC50",0.15 µM
same,IC50,"H2122; NCI-H2122, IC50 values for the H2122 lung carcinoma cell line, Table 5, read-out: H2122 In vitro",0.15 µM
same,IC50,H460,0.48 µM
same,IC50,H290,1.3 µM
same,IC50,"[4]; 6 head and neck cancer cell lines, FIG. 3, read-out: concentrations causing 50% cell death",0.3 to 2 µM
same,IC50,"[4]; another panel of head and neck cancer cell lines, longer treatment exposure, FIG. 4, read-out: concentrations causing 50% cell death",0.2 to 0.8 µM
same,IC50,"[4]; majority of the head and neck cell lines, read-out: IC50 value, majority of the cell lines",< 0.5 µM
same,IC50,"[4]; span over 14 head and neck cancer cell lines, Table 2, FIGS. 3 and 4, read-out: IC50 values",0.2 to 2 µM
same,IC50,A549,0.55 µM
same,IC50,H865,0.36 µM
same,IC50,Aspc-1,0.5 µM
